Experimental data: patent US10029990B2, “Agent for inducing endogenous interferon” (priority 2010, dated 2018)

Key:
[1] = Concentration in blood plasma of rabbits during vaginal administration (vaginal suppositories 0.1 g); type: in vivo
Protocol: Concentration in blood plasma of the experimental animals during vaginal administration of the inventive substance.
The results of measuring the concentration of the substance in blood plasma of rabbits during vaginal administration in the form of “vaginal suppositories 0.1 g” are shown on the provided diagram in the form of averaged pharmacokinetic curves (see FIG. 1). After inserting the suppository, the substance began to enter the general blood circulation after approximately 15 minutes; after 1 hour the concentration of the substance in the blood reached its maximum (approximately 120 μg/ml); then it was gradually excreted from the organism, and 24 hours after its administration the detected presence of the substance in blood plasma was minimal (approximately 20 μg/ml). The dispersion of individual values was moderate: coefficient of variation CV amounted to 13-22%.

endogenous interferon [2] = assay: Interferon inducing activity in vivo during oral administration to mice; details: 5.0 mg/mouse, background 7-10 units
endogenous interferon [3] = assay: Interferon inducing activity in vivo during intragastric administration to mice; details: 1000 μg/mouse, background 7-10 units

Time at which concentration in the blood reached its maximum [1]: 1 h | Time until the substance began to enter the general blood circulation [1]: approximately 15 minutes | Maximum concentration of the substance in the blood ([1]; after 1 hour): approximately 120 μg/ml | concentration at 24 h ([1]; rabbit, plasma, other: vaginal, 24 hours, read-out: Concentration of the substance in blood plasma 24 hours after administration): ~20000 ng/mL
SMILES: COC(=O)c1cccc(Nc2cc(=O)[nH]c(=O)[nH]2)c1 [The inventive substance, monomer, 6-(3-methoxycarbonylphenyl) amino-2,4 (1H, 3H)-pyrimidinedione]
Interferon inducing activity, 2 hours (endogenous interferon [2]; 2 hours): 18 IU | Interferon inducing activity, 4 hours (endogenous interferon [2]; 4 hours): 120 IU | Interferon inducing activity, 6 hours (endogenous interferon [2]; 6 hours): 20 IU | Interferon inducing activity, 8 hours (endogenous interferon [2]; 8 hours): 40 IU | Interferon inducing activity, 24 hours (endogenous interferon [2]; 24 hours): 100 IU | Interferon inducing activity, 2 hours (endogenous interferon [3]; 2 hours): 30 IU | Interferon inducing activity, 4 hours (endogenous interferon [3]; 4 hours): 10 IU | Interferon inducing activity, 6 hours (endogenous interferon [3]; 6 hours): 160 IU | Interferon inducing activity, 8 hours (endogenous interferon [3]; 8 hours): 25-30 IU | Interferon inducing activity, 24 hours (endogenous interferon [3]; 24 hours): 30 IU
